Tests used:
[1] = target: T1, human recombinant serotonin (5-Hydroxytryptamine) 5-HT2A receptor (Homo sapiens, UniProt P28223); assay: Serotonin 5-HT2A radioligand binding ([3H]Ketanserin); set-up: Inhibition of ligand binding, Ser. 5-HT2A: concentration or dose not given beside the values; conditions: percent inhibition of specific binding
T1 construct: expressed in transfected cells; host or cells: CHO-K1 cells
Experimental: (§1) Compounds of the invention were incubated with 0.5 nM [^3H]Ketanserin for 60 minutes at 25° C. Non-specific binding was estimated in the presence of 1 μM Mianserin. Receptor proteins were filtered and washed, the filters were then counted to determine [^3H]Ketanserin specifically bound. […] Biochemical assay results are presented as the percent inhibition of specific binding in Table 6.

[2] = target: T2, human recombinant histamine H2 receptor (Homo sapiens, UniProt P25021); assay: Histamine H2 radioligand binding ([125I]Aminopotentidine); conditions: read-out: Inhibition of ligand binding, Hist. H2
T2 construct: expressed in transfected cells; host or cells: CHO-K1 cells
T2 sequence (P25021 whole entry): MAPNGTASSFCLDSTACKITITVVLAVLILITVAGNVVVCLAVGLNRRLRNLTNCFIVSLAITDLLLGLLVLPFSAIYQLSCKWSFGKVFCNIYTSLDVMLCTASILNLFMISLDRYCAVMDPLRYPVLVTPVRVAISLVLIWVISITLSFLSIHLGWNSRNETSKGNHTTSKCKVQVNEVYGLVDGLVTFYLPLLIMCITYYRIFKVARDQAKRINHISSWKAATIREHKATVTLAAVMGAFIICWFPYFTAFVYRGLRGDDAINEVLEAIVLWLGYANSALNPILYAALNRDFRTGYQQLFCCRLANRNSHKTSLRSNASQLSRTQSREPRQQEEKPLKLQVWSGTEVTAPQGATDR
In short: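 This radioligand binding assay measured displacement of [125I]Aminopotentidine from recombinant human histamine H2 receptors. Compounds were dissolved in 1% DMSO vehicle. Specific binding was calculated by subtracting non-specific binding, defined using 3 μM Tiotidine, and activity was reported as percentage inhibition of that specific binding.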

[3] = target: T3, human recombinant dopamine D2L receptor (Homo sapiens, UniProt P14416); assay: Dopamine D2L radioligand binding ([3H]Spiperone); conditions: percent inhibition of specific binding
T3 construct: expressed in transfected cells; host or cells: CHO cells
T3 sequence (P14416 whole entry): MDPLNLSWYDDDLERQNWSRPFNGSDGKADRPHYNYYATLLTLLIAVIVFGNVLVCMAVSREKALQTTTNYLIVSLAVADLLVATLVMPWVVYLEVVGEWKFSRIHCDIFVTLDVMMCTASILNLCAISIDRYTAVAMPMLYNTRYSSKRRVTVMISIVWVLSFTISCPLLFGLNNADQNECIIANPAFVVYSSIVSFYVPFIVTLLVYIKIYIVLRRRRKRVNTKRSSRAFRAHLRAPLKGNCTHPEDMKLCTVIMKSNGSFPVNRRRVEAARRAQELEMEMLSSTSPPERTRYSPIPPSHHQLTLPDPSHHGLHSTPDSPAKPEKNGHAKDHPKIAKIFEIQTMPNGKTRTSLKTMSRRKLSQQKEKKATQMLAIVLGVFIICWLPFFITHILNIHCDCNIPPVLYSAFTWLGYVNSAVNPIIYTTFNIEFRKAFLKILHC
Experimental: Non-specific binding was estimated in the presence of 10 μM Haloperidol. Receptor proteins were filtered and washed, the filters were then counted to determine [^3H]Spiperone specifically bound. […] Biochemical assay results are presented as the percent inhibition of specific binding in Table 6.

[4] = target: T4, human recombinant adrenergic α2A receptor (Homo sapiens, UniProt P08913); assay: Adrenergic α2A radioligand binding ([3H]MK-912); set-up: Inhibition of ligand binding, Adren. alpha2A: concentration or dose not given beside the values; conditions: percent inhibition of specific binding
T4 construct: expressed in transfected cells; host or cells: insect Sf9 cells
T4 sequence (P08913 1-465): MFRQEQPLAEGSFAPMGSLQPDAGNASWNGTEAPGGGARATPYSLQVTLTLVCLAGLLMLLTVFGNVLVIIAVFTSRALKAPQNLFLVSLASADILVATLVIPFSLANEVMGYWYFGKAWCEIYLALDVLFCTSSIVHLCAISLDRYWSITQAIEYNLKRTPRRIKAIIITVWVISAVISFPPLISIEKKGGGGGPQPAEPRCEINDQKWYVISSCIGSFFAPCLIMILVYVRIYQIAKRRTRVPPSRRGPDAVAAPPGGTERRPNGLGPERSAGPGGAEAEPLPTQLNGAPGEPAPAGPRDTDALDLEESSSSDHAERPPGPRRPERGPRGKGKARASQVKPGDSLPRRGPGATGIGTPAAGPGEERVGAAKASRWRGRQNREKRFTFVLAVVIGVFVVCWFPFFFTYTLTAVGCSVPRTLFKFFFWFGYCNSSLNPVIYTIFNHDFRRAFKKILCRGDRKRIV
In short: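 Membranes from Sf9 cells expressing the receptor were incubated with 1 nM [3H]MK-912 for 60 minutes at 25° C in 50 mM Tris-HCl pH 7.4, 12.5 mM MgCl2, 2 mM EDTA. 10 μM WB-4101 defined non-specific binding. Values are percent inhibition of specific bound radioactivity after filtration.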

[5] = target: T5, human recombinant serotonin (5-Hydroxytryptamine) 5-HT6 receptor (Homo sapiens, UniProt P50406); assay: Serotonin 5-HT6 radioligand binding ([3H]LSD); set-up: Inhibition of ligand binding, Ser. 5-HT6: concentration or dose not given beside the values; conditions: percent inhibition of specific binding
T5 construct: expressed in transfected cells; host or cells: human HeLa cells
T5 sequence (P50406 whole entry): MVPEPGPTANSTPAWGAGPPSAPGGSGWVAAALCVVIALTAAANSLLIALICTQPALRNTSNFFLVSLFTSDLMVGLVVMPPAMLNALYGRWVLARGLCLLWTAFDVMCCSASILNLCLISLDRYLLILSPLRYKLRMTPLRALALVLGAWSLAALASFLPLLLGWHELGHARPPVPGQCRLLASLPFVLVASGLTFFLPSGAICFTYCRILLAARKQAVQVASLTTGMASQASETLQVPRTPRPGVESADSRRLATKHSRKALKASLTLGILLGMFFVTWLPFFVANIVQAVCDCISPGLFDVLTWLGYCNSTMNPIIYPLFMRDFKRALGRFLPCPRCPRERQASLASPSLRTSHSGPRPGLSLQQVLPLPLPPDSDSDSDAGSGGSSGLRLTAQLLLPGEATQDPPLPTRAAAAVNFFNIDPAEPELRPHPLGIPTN
Excerpt: Receptor proteins were filtered and washed, the filters were then counted to determine [3H]LSD specifically bound. […] Biochemical assay results are presented as the percent inhibition of specific binding in Table 6.

[6] = target: T6, human recombinant adrenergic α1D receptor (Homo sapiens, UniProt P25100); assay: Adrenergic α1D radioligand binding ([3H]Prozosin); set-up: Inhibition of ligand binding, Adren. alpha1D: concentration or dose not given beside the values; conditions: percent inhibition of specific binding
T6 construct: expressed in transfected cells; host or cells: HEK-293 cells
T6 sequence (P25100 1-572): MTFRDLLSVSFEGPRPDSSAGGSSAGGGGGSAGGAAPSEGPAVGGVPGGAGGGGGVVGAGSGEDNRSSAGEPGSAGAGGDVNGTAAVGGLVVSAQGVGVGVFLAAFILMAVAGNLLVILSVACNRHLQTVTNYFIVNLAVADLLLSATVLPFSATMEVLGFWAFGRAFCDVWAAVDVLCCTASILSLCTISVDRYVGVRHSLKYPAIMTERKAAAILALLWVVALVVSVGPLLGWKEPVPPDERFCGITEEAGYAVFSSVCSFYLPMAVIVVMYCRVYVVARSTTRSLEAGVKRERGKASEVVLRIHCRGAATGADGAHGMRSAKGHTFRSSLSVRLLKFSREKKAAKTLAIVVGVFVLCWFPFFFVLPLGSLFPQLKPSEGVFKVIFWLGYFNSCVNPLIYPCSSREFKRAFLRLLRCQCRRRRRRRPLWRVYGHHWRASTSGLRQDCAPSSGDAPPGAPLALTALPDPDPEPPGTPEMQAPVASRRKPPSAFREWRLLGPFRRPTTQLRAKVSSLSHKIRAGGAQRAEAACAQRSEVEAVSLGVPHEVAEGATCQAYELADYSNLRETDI
Experimental: as §1, with “of” for “of the”, “0.6” for “0.5”, “[^3H]Prozosin” for “[^3H]Ketanserin”, “10” for “1”, “phentolamine.” for “Mianserin.”

T1 sequence (P28223 whole entry): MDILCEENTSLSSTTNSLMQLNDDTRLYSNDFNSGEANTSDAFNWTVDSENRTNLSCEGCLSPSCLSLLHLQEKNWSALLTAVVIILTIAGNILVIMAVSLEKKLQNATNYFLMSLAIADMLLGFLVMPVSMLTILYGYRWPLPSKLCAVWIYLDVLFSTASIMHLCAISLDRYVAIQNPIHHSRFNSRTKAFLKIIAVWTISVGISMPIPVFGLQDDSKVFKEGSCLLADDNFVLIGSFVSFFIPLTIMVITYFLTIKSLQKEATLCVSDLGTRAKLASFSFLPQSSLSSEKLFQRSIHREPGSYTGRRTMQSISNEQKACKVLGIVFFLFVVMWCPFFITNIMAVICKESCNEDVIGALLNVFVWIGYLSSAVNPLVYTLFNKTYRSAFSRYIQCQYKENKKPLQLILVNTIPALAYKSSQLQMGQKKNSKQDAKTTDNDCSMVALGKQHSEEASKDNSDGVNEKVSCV

With `CN1CCc2c(c3cc(Cl)ccc3n2CCc2ccc(C(F)(F)F)nc2)C1` [Compound 250] the “Inhibition of ligand binding, Ser. 5-HT2A” value [1] was 101%, the inhibition at 1 µM [2] was 54% and the “Inhibition of ligand binding, Dop. D2L” value [3] was 21%. For the same compound, the “Inhibition of ligand binding, Adren. alpha2A” value [4] was 91%, the “Inhibition of ligand binding, Ser. 5-HT6” value [5] was 84% and the “Inhibition of ligand binding, Adren. alpha1D” value [6] was 93%.
`Cc1ccc2c(c1)c1c(n2CCc2ccc(C)nc2)CCN(C)C1` [Dimebon, dimebon, reference compound] was tested, and the “Inhibition of ligand binding, Ser. 5-HT2A” value [1] was 82%, the inhibition at 1 µM [2] was 83% and the “Inhibition of ligand binding, Dop. D2L” value [3] was 41%. For the same compound, the “Inhibition of ligand binding, Adren. alpha2A” value [4] was 91%, the “Inhibition of ligand binding, Ser. 5-HT6” value [5] was 95% and the “Inhibition of ligand binding, Adren. alpha1D” value [6] was 91%.

Source: patent US9096591B2, “Tetracyclic compounds” (Medivation Technologies, Inc., priority 2007, dated 2015)
